Measured values reported in patent publication US9845319B2, “Amide substituted thiazoles as modulators of RORyt” (Janssen Pharmaceutica NV, priority 2014, dated 2017).
Where two headings read alike, the source gives them in different places.

Legend:
[1] = biological target: T1, human RORγt ligand binding domain (RORγt LBD) (Homo sapiens, UniProt P51449); test: RORγt ThermoFluor assay; conditions: estimated from thermal shift concentration response
T1 construct: His-tag (N); TurboTEV protease cleavage site (ENLYFQG) (N); made in house; host or cells: E. coli (pHIS1, a modified pET expression vector)
T1 sequence (P51449 with tags, fused parts or gaps): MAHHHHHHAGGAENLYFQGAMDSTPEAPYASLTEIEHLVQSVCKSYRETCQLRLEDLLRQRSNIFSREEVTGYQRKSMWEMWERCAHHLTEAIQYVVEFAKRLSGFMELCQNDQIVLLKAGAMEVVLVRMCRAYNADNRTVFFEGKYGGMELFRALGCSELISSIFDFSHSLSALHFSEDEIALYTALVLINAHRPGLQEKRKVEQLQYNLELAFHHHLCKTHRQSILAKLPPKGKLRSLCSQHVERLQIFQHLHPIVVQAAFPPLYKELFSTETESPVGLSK
How it was run: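 Thermal shift of RORγt LBD (0.065 mg/mL) with 60 μM 1,8-ANS in 100 mM Hepes pH 7.0, NaCl, GSH, 0.002% Tween-20, heated at 1° C/min. ANS fluorescence tracked versus temperature; ΔTm relative to DMSO wells. Compounds serially diluted 1:2 from 10 mM DMSO stock.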

full-length human RORγt = biological target: T2, full-length human RORγt (Homo sapiens, UniProt P51449); test: RORγt (full-length human) Reporter Assay, Conditions A; assay type: cell-based; conditions: for IC50: HEK293T cells, GAL4-DBD-RORγt, luciferase, read-out: RORγt (FL) Reporter Assay A, IC50; for inhibition at 2 µM: read-out: RORγt (FL) Reporter Assay A, % inhibition (* at 2 μM), 2 μM compound concentration (footnote *); for inhibition at 6 µM: read-out: RORγt (FL) Reporter Assay A, % inhibition @ 6 μM, 6 μM compound
T2 construct: expressed in transfected cells; host or cells: HEK293T, transiently transfected with pCMV-BD-ROR
T2 sequence (P51449 1-497 isoform P51449-2): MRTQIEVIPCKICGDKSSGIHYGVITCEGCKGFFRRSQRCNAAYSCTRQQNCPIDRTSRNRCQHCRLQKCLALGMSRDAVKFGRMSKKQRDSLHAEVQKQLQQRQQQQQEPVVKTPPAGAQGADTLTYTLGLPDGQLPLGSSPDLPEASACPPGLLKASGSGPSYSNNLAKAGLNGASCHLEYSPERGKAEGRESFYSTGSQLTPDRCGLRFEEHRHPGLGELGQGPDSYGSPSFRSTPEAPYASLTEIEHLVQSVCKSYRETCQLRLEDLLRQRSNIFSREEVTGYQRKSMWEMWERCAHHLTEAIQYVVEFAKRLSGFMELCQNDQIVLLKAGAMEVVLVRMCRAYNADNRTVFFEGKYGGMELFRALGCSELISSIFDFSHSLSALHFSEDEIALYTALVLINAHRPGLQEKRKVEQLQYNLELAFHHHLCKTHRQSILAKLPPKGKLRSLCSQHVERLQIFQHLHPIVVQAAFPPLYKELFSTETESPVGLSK
How it was run: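 Dual-luciferase readout after overnight (16 to 20 hours) treatment: firefly values scaled between DMSO-only and saturating reference-compound controls, then corrected by Renilla. Percent inhibition calculated against DMSO control, with IC50 derived from concentration-response plots.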

[2] = system: IL-17 production by CD4 T cells; test: Human Th17 Assay; assay type: cell-based; conditions: 72 h, read-out: Human Th17 Assay, IC50
Method: The human Th17 assay tests the effect of RORγt modulatory compounds on IL-17 production by CD4 T cells under conditions which favor Th17 differentiation. Total CD4^+ T cells were isolated from the peripheral blood mononuclear cells (PBMC) of healthy donors using a CD4^+ T cell isolation kit II, following the manufacturer's instructions (Miltenyi Biotec). […] 50 μL of compound at titrated concentrations in DMSO were added into each well at final DMSO concentration at 0.2%. Cells were incubated for 1 hour, then 50 μL of Th17 cell differentiation medium was added to each well. The final concentrations of antibodies and cytokines (R&D Systems) in differentiation medium were: 3×10^6/mL anti-CD3/CD28 beads (prepared using human T cell activation/expansion kit, Miltenyi Biotec), 10 μg/mL anti-IL4, 10 μg/mL anti-IFNγ, 10 ng/mL IL1β, 10 ng/mL IL23, 50 ng/mL IL6, 3 ng/mL TGFβ and 20 U/mL IL2. Cells were cultured at 37° C. and 5% CO2 for 3 days. Supernatants were collected and the accumulated IL-17 in culture was measured by using MULTI-SPOT® Cytokine Plate following manufacture's instruction (Meso Scale Discovery). The plate was read using Sector Imager 6000, and IL-17 concentration was extrapolated from the standard curve. The IC50s were determined by GraphPad.

[3] = IL-17 in supernatant, 3 days, human CD4+ T cells

SMILES	Kd [1] [nM]	IC50 (full-length human RORγt) [nM]	inhibition at 2 µM (full-length human RORγt) [%]	IC50 [2, 3] [nM]	inhibition at 6 µM (full-length human RORγt) [%]	IC50 ([2]; Homo sapiens, CD4+ T) [nM]
CC[C@H](NS(=O)(=O)c1ccc(-c2sc(-c3cccc(CC(C)(C)C(=O)O)n3)nc2C(=O)N2CCC(F)(F)CC2)c(C(F)F)c1F)C(F)(F)F [Example 19, (S)-3-(6-(5-(2-(Difluoromethyl)-3-fluoro-4-(N-(1,1,1-trifluorobutan-2-yl)sulfamoyl)phenyl)-4-(4,4-difluoropiperidine-1-carbonyl)thiazol-2-yl)pyridin-2-yl)-2,2-dimethylpropanoic acid]	0.013	8	99	9		
CC(C)(Cc1nnc(-c2nc(C(=O)N3CCC(F)CC3)c(-c3cc(C(C)(C)C)cc(C(O)(C(F)(F)F)C(F)(F)F)c3)s2)o1)C(=O)O [Example 2/2, 3-(5-(5-(3-(tert-Butyl)-5-(1,1,1,3,3,3-hexafluoro-2-hydroxypropan-2-yl)phenyl)-4-(4-fluoropiperidine-1-carbonyl)thiazol-2-yl)-1,3,4-oxadiazol-2-yl)-2,2-dimethylpropanoic acid]	2	150		150	104	
C[C@H](NS(=O)(=O)c1ccc(-c2sc(-c3nnc(C(C)(C)O)o3)nc2C(=O)N2CCC(F)(F)CC2)c(Cl)c1Cl)C(F)(F)F [Example 4/4, (S)-2,3-Dichloro-4-(4-(4,4-difluoropiperidine-1-carbonyl)-2-(5-(2-hydroxypropan-2-yl)-1,3,4-oxadiazol-2-yl)thiazol-5-yl)-N-(1,1,1-trifluoropropan-2-yl)benzenesulfonamide]						15
C[C@H]1CCCCN1C(=O)c1nc(-c2nnc(CC(C)(C)C(=O)O)o2)sc1-c1ccc(C(O)(C(F)(F)F)C(F)(F)F)c(Cl)c1Cl [Example 2/1, (S)-3-(5-(5-(2,3-Dichloro-4-(1,1,1,3,3,3-hexafluoro-2-hydroxypropan-2-yl)phenyl)-4-(2-methylpiperidine-1-carbonyl)thiazol-2-yl)-1,3,4-oxadiazol-2-yl)-2,2-dimethylpropanoic acid]	0.98	230			102	
C[C@H](NS(=O)(=O)c1ccc(-c2sc(-c3nnc(C(C)(C)O)o3)nc2C(=O)N2CC(F)C[C@@H]2C)c(C(F)F)c1F)C(F)(F)F (stereo partly drawn) [Example 6/21, 3-(Difluoromethyl)-2-fluoro-4-(4-((2S)-4-fluoro-2-methylpyrrolidine-1-carbonyl)-2-(5-(2-hydroxypropan-2-yl)-1,3,4-oxadiazol-2-yl)thiazol-5-yl)-N—((S)-1,1,1-trifluoropropan-2-yl)benzenesulfonamide]	270	410			102	
C[C@H](NC(=O)c1cc(-c2sc(-c3nnc(C(C)(C)O)o3)nc2C(=O)N2CCC(F)CC2)cc(C2(C)CC2)c1)C(F)(F)F [Example 6/10, (S)-3-(4-(4-Fluoropiperidine-1-carbonyl)-2-(5-(2-hydroxypropan-2-yl)-1,3,4-oxadiazol-2-yl)thiazol-5-yl)-5-(1-methylcyclopropyl)-N-(1,1,1-trifluoropropan-2-yl)benzamide]	45	210			101	
CC(C)(O)Cc1nnc(-c2nc(C(=O)N3CC[C@H](F)C3)c(-c3ccc(C(O)(C(F)(F)F)C(F)(F)F)c(Cl)c3Cl)s2)o1 [Example 3/6, (S)-(5-(2,3-Dichloro-4-(1,1,1,3,3,3-hexafluoro-2-hydroxypropan-2-yl)phenyl)-2-(5-(2-hydroxy-2-methylpropyl)-1,3,4-oxadiazol-2-yl)thiazol-4-yl)(3-fluoropyrrolidin-1-yl)methanone]	76	370			104	
CC(C)(O)c1nnc(-c2nc(C(=O)N3CC(F)(F)CC3(C)C)c(-c3ccc(S(=O)(=O)NC4(C(F)F)CC4)c(F)c3Cl)s2)o1 [Example 6/22, 3-Chloro-4-(4-(4,4-difluoro-2,2-dimethylpyrrolidine-1-carbonyl)-2-(5-(2-hydroxypropan-2-yl)-1,3,4-oxadiazol-2-yl)thiazol-5-yl)-N-(1-(difluoromethyl)cyclopropyl)-2-fluorobenzenesulfonamide]	1200	1600			74	

Now from value to compound, other results behind:

Kd [1] [nM]	IC50 (full-length human RORγt) [nM]	inhibition at 2 µM (full-length human RORγt) [%]	IC50 [2, 3] [nM]	inhibition at 6 µM (full-length human RORγt) [%]	SMILES	IC50 ([2]; Homo sapiens, CD4+ T) [nM]
280	> 2000	-25			C[C@H](NS(=O)(=O)c1ccc(-c2sc(-c3noc(=O)[nH]3)nc2C(=O)N2CCC(F)CC2)c(Cl)c1Cl)C(F)(F)F [Example 14, (S)-2,3-Dichloro-4-(4-(4-fluoropiperidine-1-carbonyl)-2-(5-oxo-4,5-dihydro-1,2,4-oxadiazol-3-yl)thiazol-5-yl)-N-(1,1,1-trifluoropropan-2-yl)benzenesulfonamide]	
4.7	67			107	CC1(NS(=O)(=O)c2ccc(-c3sc(-c4nnc(C(C)(C)O)o4)nc3C(=O)N3CCC(F)(F)CC3)c(Cl)c2Cl)CC1 [Example 21, 2,3-Dichloro-4-(4-(4,4-difluoropiperidine-1-carbonyl)-2-(5-(2-hydroxypropan-2-yl)-1,3,4-oxadiazol-2-yl)thiazol-5-yl)-N-(1-methylcyclopropyl)benzenesulfonamide]	
4.7	55			101	C[C@H](NS(=O)(=O)c1ccc(-c2sc(-c3nnc(CS(C)(=O)=O)o3)nc2C(=O)N2CCC(F)(F)CC2)c(Cl)c1Cl)C(F)(F)F [Example 1/4, (S)-2,3-Dichloro-4-(4-(4,4-difluoropiperidine-1-carbonyl)-2-(5-((methylsulfonyl)methyl)-1,3,4-oxadiazol-2-yl)thiazol-5-yl)-N-(1,1,1-trifluoropropan-2-yl)benzenesulfonamide]	
1.2	61	104			C[C@H](NS(=O)(=O)c1ccc(-c2sc(-c3nnc(C(C)(C)O)[nH]3)nc2C(=O)N2CCC(F)(F)CC2)c(Cl)c1Cl)C(F)(F)F [Example 9/3, (S)-2,3-Dichloro-4-(4-(4,4-difluoropiperidine-1-carbonyl)-2-(5-(2-hydroxypropan-2-yl)-4H-1,2,4-triazol-3-yl)thiazol-5-yl)-N-(1,1,1-trifluoropropan-2-yl)benzenesulfonamide]	
1.7	27			110	CC[C@H](NS(=O)(=O)c1ccc(-c2sc(-c3nnc(C(C)(C)O)o3)nc2C(=O)N2CCC(F)(F)CC2)c(C(F)F)c1F)C(F)(F)F [Example 6/3, (S)-3-(Difluoromethyl)-4-(4-(4,4-difluoropiperidine-1-carbonyl)-2-(5-(2-hydroxypropan-2-yl)-1,3,4-oxadiazol-2-yl)thiazol-5-yl)-2-fluoro-N-(1,1,1-trifluorobutan-2-yl)benzenesulfonamide]	
1	10			106	CC[C@H](NS(=O)(=O)c1ccc(-c2sc(-c3nnc(CC(C)(C)C#N)o3)nc2C(=O)N2CCC(F)CC2)c(Cl)c1Cl)C(F)(F)F [Example 1/1, (S)-2,3-Dichloro-4-(2-(5-(2-cyano-2-methylpropyl)-1,3,4-oxadiazol-2-yl)-4-(4-fluoropiperidine-1-carbonyl)thiazol-5-yl)-N-(1,1,1-trifluorobutan-2-yl)benzenesulfonamide]	
